Like-named read-outs stand apart in the source and are kept apart here. Marks after values point to notes of the source that are not given here.
What was measured:
ob/ob mice = conditions: sitagliptin 0.0018% in diet 12 weeks; alogliptin 42.2 mg/kg/day 28 days; cited from earlier work
[1] = cited from earlier work; for Effect on Body Weight (placebo-adjusted change from baseline) / Effect on HbA1c (placebo-adjusted change from baseline) / Effect on Body Weight (placebo-adjusted change from baseline), percent: QD 24-26 weeks
[2] = 18 weeks, on metformin; saxagliptin 5 mg daily; sitagliptin 100 mg; cited from earlier work
[3] = in words; cited from earlier work
[4] = system: high-fat diet-induced obese (DIO) mice; type: in vivo; conditions: in words; for high-density lipoprotein (HDL) levels: vs vehicle controls
Protocol: This Example provides the results from an in vivo study of denatonium acetate and sitagliptin in high-fat diet-induced obese (DIO) mice. C57BL/6NTac mice (at least 12 weeks of age) were fed with a high fat diet. All mice were dosed orally by gavage as (a) Vehicle group (N=15) dosed with distilled water BID, (b) DA group (N=15) dosed at 75 mg/kg (denatonium weight) BID; (c) sitagliptin group (N=15) dosed by gavage with 10 mg/kg QD; and (d) DA+ sitagliptin group (N=15) treated with DA at 75 mg/kg (denatonium based weight) BID and sitagliptin at 10 mg/kg by gavage QD. The groups were dosed for 8 weeks followed by a 5-7 day […] period. Body weight and body weight changes were measured three times per week. Serum biomarker levels for blood glucose (after fasting 6-8 hours), blood insulin, percentage of blood HvA1c, HDL, LDL, total triglycerides (TG), total cholesterol (TC) and bile acid were measured twice during the study at day 28 and at the end (day 56) of the study. Cumulative food intake and water consumption for each animal was measured.

[5] = system: C57Bl/6J mice fed with high-fat diet; conditions: sitagliptin 0.004% in diet 12 weeks; vildagliptin 30 mg/kg/day 7 weeks; alogliptin 0.03% (wt/wt) in diet for life span; cited from earlier work
[6] = semaglutide 3 mg, sitagliptin 100 mg, saxagliptin 2.5 mg, vildagliptin 50 mg, alogliptin 12.5 mg, linagliptin 5 mg
[7] = semaglutide 7 mg, sitagliptin 200 mg, saxagliptin 5 mg, vildagliptin 100 mg, alogliptin 25 mg
[8] = sitagliptin alone or in combination compared with controls, meta-analysis results

Compound: N[C@@H](CC(=O)N1CCn2c(nnc2C(F)(F)F)C1)Cc1cc(F)c(F)cc1F [Sitagliptin, (2R)-4-oxo-4-[3-(trifluoromethyl)-5,6-dihydro[1,2,4]triazolo[4,3-a]pyrazin-7(8H)-yl]-1-(2,4,5-trifluorophenyl)butan-2-amine]
- Control-adjusted Percent Change in Fasting Blood Glucose (ob/ob mice): −23.4%*
- Control-adjusted Percent Change in Insulin Level (ob/ob mice): +148%*
- Control-adjusted Percent Change in TG Level (ob/ob mice): −43.2%*
- Effect on Body Weight (placebo-adjusted change from baseline) [1, 6]: 100 mg: +0.9 kg
- Effect on HbA1c (placebo-adjusted change from baseline) [1, 6]: 100 mg: −0.79%
- Effect on Body Weight (placebo-adjusted change from baseline), percent ([1]; semaglutide 3 mg, sitagliptin 100 mg, saxagliptin 2.5 mg, vildagliptin 50 mg): (+1.1%)
- Effect on Body Weight (placebo-adjusted change from baseline) [1, 7]: 200 mg: +1.0 kg
- Effect on HbA1c (placebo-adjusted change from baseline) [1, 7]: 200 mg: −0.94%
- Effect on Body Weight (placebo-adjusted change from baseline), percent ([1]; semaglutide 7 mg, sitagliptin 200 mg, saxagliptin 5 mg, vildagliptin 100 mg): (+1.2%)
- HDL-C, weighted mean difference (WMD) [1, 8]: 0.05 mmol/L) ^$$$
- serum TG, weighted mean difference [WMD] [1, 8]: [WMD] −0.24 mmol/L
- reductions in hemoglobin A1c (HbA1c) [2]: −0.26%
- excretion and metabolism [3]: renally excreted with minimal liver metabolism (via CYP3A4 and CYP2C8)
- high-density lipoprotein (HDL) levels ([4]; FIG. 22A): significantly decreased high-density lipoprotein (HDL) levels
- high-density lipoprotein (HDL) levels ([4]; day 56 (FIG. 22B)): significantly decreased high-density lipoprotein (HDL) levels
- weight loss ([4]; 56-day study summary): no weight loss effect was seen with longer duration dosing
- effect on body weight (relative body weight percentage and relative body weight change) ([4]; DA 75 mg/kg BID, sitagliptin 10 mg/kg QD by gavage, 8 weeks): least effect on body weight
- Control-adjusted Percent Change in Body Weight Gain [5]: −45.8%*
- Control-adjusted Percent Change in Fasting Blood Glucose [5]: −20.9%*
- Control-adjusted Percent Change in Insulin Level [5]: −41.7%
